According to US4000310A, “Pharmaceutical compositions containing 6-methyl-3,4-diphenyl-3,4,5,6-tetrahydro-2-pyrone or derivatives thereof” (Union Chimique Continentale-U.C.C, priority 1974, dated 1976):

What was measured:
rat [1] = assay: Acute toxicity in the rat; assay type: in vivo
Protocol: (§1) All the experiments described below were carried out using male rats weighing from 170 to 220 g (Wistar Af stock) and male mice weighing from 18 to 23 g (Swiss NMRI stock).
(§2) All the experiments took place in a laboratory with a constant temperature (22° ± 1° C).
(§3) All the experiments were carried out blind (without the experimenter knowing, at the time of the tests, which animals had received the substance presumed active).
(§4) Unless otherwise stated, 10 animals were always used per point.
(§5) In the rat, with either oral or intraperitoneal administration, the LD50 of 6-methyl 3,4-diphenyl-3,4,5,6-tetrahydro 2-pyrone was over 300 mg/kg.

[2] = Acute toxicity in the rat; assay type: in vivo; details: in vivo
Protocol: as §1, §2, §3, §4, §5

rat [3] = assay: Effects of barbiturate hypnotics, rat; assay type: in vivo, rat (male, Wistar Af stock); details: rat, 16, 32 or 64 mg/kg oral, with pentabarbitone or barbitone sodium
Protocol: as §1

mouse [4] = assay: Motor activity in the mouse (actimeters with photoelectric cells); assay type: in vivo, mouse (male, Swiss NMRI stock); details: for motor activity relative to the control group: 64 mg/kg oral
Protocol: as §1
Motor activity was determined using actimeters with photoelectric cells (Boissier and Simon, Arch. int. Pharmacodyn., 1965, 158, 212-221). A minimum of 12 animals were always used per point.
a. MDTP is administered orally at variable times before activity is measured.
b. When administered orally 30 minutes before the actograph is taken, MDTP increases the motor activity of mice.
c. When administered orally immediately before the actograph is taken, MDTP (128 mg/kg) brings a marked increase in the motor activity of mice up to the 150th minute (Table I).

mice [5] = assay: Test for antioxotremorine action; assay type: in vivo, mouse (male, Swiss NMRI stock); details: mice, 8, 16, 32 or 64 mg/kg i.p. or oral; oxotremorine 0.5 mg/kg i.p.
Protocol: as §1
In mice which had been dosed intraperitoneally or orally with 8, 16, 32 or 64 mg/kg of MDTP, the effects of oxotremorine (0.5 mg/kg given intraperitoneally) were unchanged, as far as hypothermia, tremors, tears, hypersalivation and defecation were concerned.

mouse [6] = assay: Hot-plate test on the mouse; assay type: in vivo, mouse (male, Swiss NMRI stock)
Protocol: as §1
This test was applied to measure the time taken or animals to react to a painful stimulus. 12 animals were used per point. 15 Minutes after oral administration of MDTP (64 mg/kg) the time taken for mice exposed to the hot-plate to react (by licking their rear paws) was 5.9 seconds, whereas the time taken by the control group was 9.5 seconds (difference significant at the threshold of 0.01).
On the other hand, the effects on this test of an analgesic dose of morphine was not changed -- either by increasing or reducing them -- by MDTP at the same dose.

mouse [7] = assay: Determination of acute toxicity in the mouse; assay type: in vivo
Protocol: as §1, §2, §3, §4

[8] = Determination of acute toxicity in the mouse; assay type: in vivo; details: in vivo, Behrens and Karber
Protocol: as §1, §2, §3, §4

mice [9] = assay: Test for antireserpine action, mice; assay type: in vivo, mouse (male, Swiss NMRI stock); details: mice, 8, 16, 32 and 64 mg/kg oral; reserpine 2.5 mg/kg i.p. 4 hours before
Protocol: as §1

## CC1CC(c2ccccc2)C(c2ccccc2)C(=O)O1 (centres unmarked) [MDTP, 6-methyl-3,4-diphenyl-3,4,5,6-tetrahydro-2-pyrone]
Rat [1]
  ratio LD50/ED 50: over 10/1
[2]; ip, intraperitoneal
  LD50: > 300 mg/kg
[2]; oral
  LD50: > 300 mg/kg
Rat [3]
  change in time to fall asleep and sleeping period: did not produce any change in the time taken to fall asleep or in the sleeping period
Mouse [4]; 15 min pretreatment
  motor activity relative to the control group: 221%
Mouse [4]; 30 min pretreatment
  motor activity relative to the control group: 192%
Mouse [4]; 60 min pretreatment
  motor activity relative to the control group: 161%
Mouse [4]; 120 min pretreatment
  motor activity relative to the control group: 136%
Mouse [4]; 128 mg/kg orally, control group 8
  Number of bars passed over by mice, 150 to 180 min: 25
Mouse [4]; 128 mg/kg orally, control group 12
  Number of bars passed over by mice, 60 to 90 min: 244
Mouse [4]; 128 mg/kg orally, control group 14
  Number of bars passed over by mice, 120 to 150 min: 66
Mouse [4]; 128 mg/kg orally, control group 15
  Number of bars passed over by mice, 90 to 120 min: 99
Mouse [4]; 128 mg/kg orally, control group 82
  Number of bars passed over by mice, 30 to 60 min: 428
Mouse [4]; 128 mg/kg orally, control group 390
  Number of bars passed over by mice, 0 to 30 min: 846
Mouse [4]; 0.5 h, mouse, oral, 30 min before actograph, read-out: dose from which increase in motor activity becomes significant
  minimal effective dose: 32 mg/kg
Mouse [4]; mouse, oral, 30 min before actograph
  dose dependence of increase in motor activity: proportional to the dose administered
Mice [5]
  effects of oxotremorine (hypothermia, tremors, tears, hypersalivation, defecation): unchanged
Mouse [6]; 64 mg/kg oral, 15 min after, control 9.5 seconds, significant at 0.01
  time taken to react (licking rear paws) on hot-plate: 5.9 s
Mouse [6]; MDTP at the same dose
  change in effects of an analgesic dose of morphine on hot-plate test: not changed
Mouse [7]
  ratio LD50/ED 50: approximately 20/1
[8]; ip, intraperitoneal
  LD50: 150 mg/kg
[8]; oral
  LD50: 625 mg/kg
Mice [9]
  change in reserpine-induced hypothermia or palpebral ptosis: did not produce any change in the hypothermia or palpebral ptosis
